Experimental data: patent US9889092B2, “Low density lipoprotein nanocarriers for targeted delivery of omega-3 polyunsaturated fatty acids to cancer” (The Board of Regents of the University of Texas System, priority 2013, dated 2018)

Key:
[1] = Oxidative stability of LDL nanoparticles (peroxide value, HPLC DHA content); type: physicochemical; conditions: under air at 55° C. for 5 hrs
Description: FIGS. 4A-D. Oxidative stability: (FIG. 4A) HPLC determination of DHA content in LDL nanoparticles and DHA in heptane; (**) p<0.01 DHA in heptane versus LDL-DHA, after 14 days; (***) p<0.001, DHA in heptane versus LDL-DHA, after 21 and 28 days. (FIG. 4B) Peroxide indices of LDL, DHA in heptane, and LDL-DHA nanoparticles. Samples from FIG. 4A and FIG. 4B were stored at ambient conditions and were subjected to HPLC or peroxide analysis at baseline, 7, 14, 21, and 28 days; (**) p<0.01, DHA in heptane versus LDL-DHA after 14 days; (***) p<0.001, LDL or DHA in heptane versus LDL-DHA after 21 and 28 days; (****) p<0.0001, LDL versus LDL-DHA, after 28 days. […] DHA content is expressed as a percentage of baseline control. The peroxide index is expressed as mEq of peroxide/Kg of lipid.
Oxidative stability of LDL nanoparticles. […] Absorbance of red color formed from the presence of ferric ion was measured at 500 nm using UV-visible spectrophotometer (UV 1800, Shimadzu, USA) and the concentration was determined using a calibration curve of ferric chloride (FeCl3). […] The peroxide value was calculated using the following formula: PV=[Fe3+]/(55.84×g of lipids×2) where 55.84 is the molecular weight of iron. Results were expressed as mEq peroxide/kg lipid.

TIB-75 cells = experiment: Cell toxicity assay (MTS), TIB-75; type: cell-based, mouse; conditions: 40 μM LDL-DHA with 100 or 200 μM Vitamin E, 72 hours
Protocol: Cell culture. The mouse liver cell line TIB-73 (BNL CL.2) and its malignant counterpart TIB-75 (BNL 1MEA.7R.1) were obtained from ATCC (Manassas, Va.) and cultured in Dulbeco's modified Eagle's medium (DMEM) supplemented with 10% fetal bovine serum (FBS). Cells were grown at 37° C. in an atmosphere of 5% CO2 in a humidified incubator.
Cell toxicity assay (MTS). Each cell type was seeded in 96-well plates (2×10^3 cells/well). After 48 hrs of culture, the cells received various concentrations of the LDL-DHA nanoparticles ranging from 0 to 100 μM (DHA). For controls (LDL-OA/TO) dosing went as high as 200 μM. At the end of the 72 hr treatment period, the cell viability was measured by the MTS assay as recommended by the manufacturer. In brief, 20 μL MTS solution was added to each well and cells were incubated at 37° C. for 4 hrs followed by absorbance readings at 490 nm. The relative cell viability is expressed as a percentage of the non treated controls.

| oxidative stability in final stress test [1] | Molecule | effect of co-incubation on LDL-DHA cytotoxicity in TIB-75 cells (TIB-75 cells) |
| --- | --- | --- |
| significant degradative peroxidation | CC/C=C\C/C=C\C/C=C\C/C=C\C/C=C\C/C=C\CCC(=O)O [DHA in heptane, docosahexaenoic acid] |  |
|  | vitamin E | effectively abrogate the cytotoxicity of LDL-DHA |
